Data as given in US7138361B2, “Herbicidal heterocycles” (E. I. du Pont de Nemours and Company, priority 2000, dated 2006).

Assays:
Format in all cases: in vivo
[1] = tested on: rice (Oryza saliva); assay: Test C flooded paddy test; conditions: for Rice plant response rating: scale 0 to 100, 0 no effect, 100 complete control
Summary of the method: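 Visual ratings (0 = no effect, 100 = complete control) were made 12–14 days after treatment, relative to greenhouse controls. Plants in the flooded paddy test were rice, smallflower flatsedge, duck salad and barnyardgrass, treated at the 2-leaf stage.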

[2] = tested on: velvetleaf (Abutilon theophrasti); assay: Test A postemergence, sprayed to runoff; design: scale not given here; conditions: approx. eleven days
Procedure: (§1) Seeds of barnyardgrass (Echinochloa crus-galli), crabgrass (Digitaria spp.), giant foxtail (Setaria viridis), morning glory (Ipomoea spp.), redroot pigweed (Amaranthus retroflexus) and velvetleaf (Abutilon theophrasti) were planted into a sandy loam soil and treated preemergence by soil drench with test chemicals formulated in a non-phytotoxic solvent mixture which included a surfactant. At the same time, these crop and weed species were also treated postemergence sprayed to runoff with test chemicals formulated in the same manner. Plants ranged in height from two to eighteen cm and were in the one- to two-leaf stage for the postemergence treatment. Treated plants and untreated controls were maintained in a greenhouse for approximately eleven days, after which time all treated plants were compared to untreated controls and visually evaluated for injury. Plant response ratings, summarized in Table A, are based on a 0 to 10 scale where 0 is no effect and 10 is complete control. A dash (-) response means no test results.

[3] = tested on: morning glory (Ipomoea spp.); assay: Test A postemergence, sprayed to runoff; design: scale not given here; conditions: Morningglory, approx. eleven days
Procedure: as §1

[4] = tested on: barnyardgrass (Echinochloa crus-galli); assay: Test B flooded paddy test; conditions: Rate 1000 g/ha, scale of 0 to 100 where 0 is no effect and 100 is complete control, visually evaluated after 13 to 15 days
Summary of the method: (§2)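 Plants were grown to the 2-leaf stage in flooded paddy conditions before treatment with the formulated test chemicals. After 13 to 15 days in a greenhouse, each species was visually compared with untreated controls and rated from 0 (no effect) to 100 (complete control).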

[5] = tested on: rice (Oryza saliva); assay: Test B flooded paddy test; conditions: Rate 1000 g/ha, scale of 0 to 100 where 0 is no effect and 100 is complete control, visually evaluated after 13 to 15 days
Summary of the method: as §2

[6] = tested on: smallflower flatsedge (Cyperus difformis); assay: Test B flooded paddy test; conditions: Rate 1000 g/ha, scale of 0 to 100 where 0 is no effect and 100 is complete control, visually evaluated after 13 to 15 days
Summary of the method: as §2

[7] = tested on: duck salad (Heteranthera limosa); assay: Test B flooded paddy test; conditions: Rate 1000 g/ha, scale of 0 to 100 where 0 is no effect and 100 is complete control, visually evaluated after 13 to 15 days
Summary of the method: as §2

[8] = tested on: Sunflower; assay: Test C preemergence; conditions: Rate 250 g/ha, visual evaluation after 12 to 14 days
[9] = tested on: Sunflower; assay: Test C preemergence; conditions: Rate 31 g/ha, scale 0 to 100
[10] = Flooded Paddy, Rate 500 g/ha, scale 0 to 100
[11] = flooded paddy test, Rate 62 g/ha, scale 0 to 100 (0 no effect, 100 complete control)
[12] = flooded paddy test, Rate 125 g/ha, scale 0 to 100 (0 no effect, 100 complete control)

Compound	Rice plant response rating ([1]; Flooded Paddy, Rate 250 g/ha)	Plant response rating, Rice [1, 11]	Plant response rating, Rice [1, 12]	Plant response rating (visual injury vs untreated controls) ([2]; Rate 500 g/ha)	Plant response rating (visual injury vs untreated controls) ([2]; Rate 2000 g/ha)	Plant response rating (visual injury vs untreated controls) ([3]; Rate 500 g/ha)	Plant response rating (visual injury vs untreated controls) ([3]; Rate 2000 g/ha)	Plant response rating, Barnyardgrass [4]	Plant response rating, Rice [5]	Plant response rating, Flatsedge [6]	Plant response rating, Ducksalad [7]	further results
CC1CCc2cn(C3CCN(c4cccc(C(F)(F)F)c4)C3=O)nc21 (stereo not shown) [Compound 11]	20	0	0	0	0	10	10	60	40	100	90	Plant response rating, Rice [1, 10]: 30
O=C1C(n2cccn2)CCN1c1cccc(C(F)(F)F)c1 (stereo not shown) [Compound 15]				0	10	30	20	0	0	0	0	
O=C1C(n2cc(Cl)c(C3CC3)n2)CCN1c1cccc(C(F)(F)F)c1 (stereo not shown) [Compound 12]				0	0	0	0	0	0	30	0	
CC1(C)CCc2cn(C3CCN(c4cccc(C(F)(F)F)c4)C3=O)nc21 (stereo not shown) [Compound 10]	10	0	0	0	50	10	20	100	60	100	100	Plant response rating, Rice [1, 10]: 60; Plant response rating (scale 0 to 100), Rice ([1]; flooded paddy test, Rate 16 g/ha, visually evaluated after 12 to 14 days, 0 = no effect, 100 = complete control): 0
O=C1C(n2ccc(C3CC3)n2)OCN1c1cccc(C(F)(F)F)c1 (stereo not shown) [Compound 28]	20	0	20	0	50	10	20	100	50	100	100	Rice plant response rating ([1]; Flooded Paddy, Rate 500 g/ha): 20; Plant response rating (0 to 100), Sunflower [8]: 40; Plant response rating, Sunflower [9]: 0
CC(C)c1ccn(C2OCN(c3cccc(C(F)(F)F)c3)C2=O)n1 (stereo not shown) [Compound 27]	40	0	40	0	20	0	20	90	50	100	100	Rice plant response rating ([1]; Flooded Paddy, Rate 500 g/ha): 70; Plant response rating (0 to 100), Sunflower [8]: 20; Plant response rating, Sunflower [9]: 0
CC(C)(C)c1ccn(C2CCN(c3cccc(C(F)(F)F)c3)C2=O)n1 (stereo not shown) [Example 3, 3-[3-(1,1-dimethylethyl)-1H-pyrazol-1-yl]-1-[3-(trifluoromethyl)phenyl]-2-pyrrolidinone]	50	0	0					100	90	100	100	Plant response rating, Rice [1, 10]: 60; Plant response rating, Rice ([1]; Flooded Paddy, Rate 1000 g/ha, scale 0 to 100): 90; Plant response rating (visual injury vs untreated controls) ([2]; Rate 250 g/ha): 0; Plant response rating (visual injury vs untreated controls) ([2]; Rate 1000 g/ha): 0; Plant response rating (visual injury vs untreated controls) ([3]; Rate 250 g/ha): 10; Plant response rating (visual injury vs untreated controls) ([3]; Rate 1000 g/ha): 10
CC(C)(C)c1ccn(C2OCN(c3cccc(C(F)(F)F)c3)C2=O)n1 (stereo not shown) [compound 9]				0	40	10	10	100	100	100	100	
CCC(C)c1nn(C2CCN(c3cccc(C(F)(F)F)c3)C2=O)cc1Cl (stereo not shown) [Compound 13]				0	0	0	0	0	0	0	0	
Cc1ccn(C2CCN(c3cccc(C(F)(F)F)c3)C2=O)n1 (stereo not shown) [Compound 16]				0	20	20	20	0	0	0	0	
O=C1C(n2ccc(C3CC3)n2)SCN1c1cccc(C(F)(F)F)c1 (stereo not shown) [Compound 26]	80	0	40	10	10	20	50	0	0	0	0	Rice plant response rating ([1]; Flooded Paddy, Rate 500 g/ha): 80
